Series [1] in a line: Aggregation of the compound in water at 25 to 95 degC by UV-Visible titration method. The settings on record: buffer. The format is physicochemical.
The nature of series [2]: Binding affinity to poly(dG-dC)2 DNA (unknown origin) in pH 7.4 sodium cacodylate buffer assessed as positive-negative bisignate ICD band at peptide to polynucleotide ratio of 0.1 to 1.7 by CD titration method.
The nature of series [3]: Binding affinity to poly(rA).(rU) RNA duplex (unknown origin) in pH 7.4 sodium cacodylate buffer assessed as positive-negative bisignate ICD band at peptide to polynucleotide ratio of 0.1 to 1.7 by CD titration method.
Series [4] is described as follows: Chemical stability in water at +8 degC. It counts as physicochemical. As to conditions: buffer.
Series [5] in a line: Binding affinity to poly(dG-dC)2 DNA (unknown origin) in pH 7.4 sodium cacodylate buffer by UV-Visible titration method.
The species named for series [6] is Bos taurus. Description: Binding affinity to calf thymus duplex DNA in pH 7.4 sodium cacodylate buffer assessed as positive-negative bisignate ICD band at peptide to polynucleotide ratio of 0.2 to 1.3 by CD titration method.
For series [7], the species on record is Bos taurus. Description: Binding affinity to calf thymus duplex DNA in pH 7.4 sodium cacodylate buffer by UV-Visible titration method.
Series [8] in a line: Binding affinity to poly(dA-dT)2 DNA (unknown origin) in pH 7.4 sodium cacodylate buffer assessed as positive-negative bisignate ICD band at peptide to polynucleotide ratio of 0.1 to 1.7 by CD titration method.
Series [9] can be described thus: Binding affinity to poly(dA-dT)2 DNA (unknown origin) in pH 7.4 sodium cacodylate buffer by UV-Visible titration method.
Series [10] in a line: Binding affinity to poly(rA).(rU) RNA duplex (unknown origin) in pH 7.4 sodium cacodylate buffer by UV-Visible titration method.
Series [11] in a line: Aqueous solubility of the compound in water. The format is physicochemical. The settings on record: buffer.
Series [12] in a line: Binding affinity to poly(dA-dT)2 DNA (unknown origin) in pH 7.4 sodium cacodylate buffer at peptide to polynucleotide ratio of 0.2 to 2.1 by CD titration method.
A short description of series [13]: Binding affinity to poly(rA).(rU) RNA duplex (unknown origin) in pH 7.4 sodium cacodylate buffer at peptide to polynucleotide ratio of 0.2 to 2.4 by CD titration method.
The species named for series [14] is Bos taurus. Description: Binding affinity to calf thymus duplex DNA in pH 7.4 sodium cacodylate buffer at peptide to polynucleotide ratio of 0.2 to 2.1 by CD titration method.
Series [15] can be described thus: Binding affinity to poly(dG-dC)2 DNA (unknown origin) in pH 7.4 sodium cacodylate buffer at peptide to polynucleotide ratio of 0.2 to 2.4 by CD titration method.
Series [16] is described as follows: Binding affinity to poly(rA).(rU) RNA duplex (unknown origin) in pH 7.4 sodium cacodylate buffer assessed as positive induced CD band at peptide to polynucleotide ratio of 0.4 by CD titration method.
Series [17] is described as follows: Binding affinity to poly(rA).(rU) RNA duplex (unknown origin) in pH 7.4 sodium cacodylate buffer at 5.35 uM by fluorimetric titration method.
Series [18] can be described thus: Induction of poly(rA).(rU) RNA duplex aggregation (unknown origin) in pH 7.4 sodium cacodylate buffer at peptide to polynucleotide ratio of 0.5 by CD titration method.
Series [19] is filed under the species Bos taurus. Kind of series: Binding affinity to calf thymus duplex DNA in pH 7.4 sodium cacodylate buffer assessed as positive induced CD band at peptide to polynucleotide ratio of 0.4 by CD titration method.
The species named for series [20] is Bos taurus. Description: Binding affinity to calf thymus duplex DNA in pH 7.4 sodium cacodylate buffer assessed as change in melting temperature at peptide to polynucleotide ratio of 0.5 by thermal denaturation assay.
A short description of series [21]: Binding affinity to poly(dA-dT)2 DNA (unknown origin) in pH 7.4 sodium cacodylate buffer at 5.35 uM by fluorimetric titration method.
Series [22] can be described thus: Binding affinity to poly(rA).(rU) RNA duplex (unknown origin) in pH 7.4 sodium cacodylate buffer assessed as change in melting temperature at peptide to polynucleotide ratio of 0.5 by thermal denaturation assay.
The nature of series [23]: Induction of poly(dG-dC)2 DNA aggregation (unknown origin) in pH 7.4 sodium cacodylate buffer at peptide to polynucleotide ratio of 0.5 by CD titration method.
Series [24] is described as follows: Binding affinity to poly(dG-dC)2 DNA (unknown origin) in pH 7.4 sodium cacodylate buffer assessed as positive induced CD band at peptide to polynucleotide ratio of 0.4 by CD titration method.
Series [25] in a line: Binding affinity to poly(dG-dC)2 DNA (unknown origin) in pH 7.4 sodium cacodylate buffer at 5.35 uM by fluorimetric titration method.
The species named for series [26] is Bos taurus. Description: Binding affinity to calf thymus duplex DNA in pH 7.4 sodium cacodylate buffer assessed as change in melting temperature at peptide to polynucleotide ratio of 0.3 by thermal denaturation assay.
Series [27] is filed under the species Bos taurus. Description: Induction of calf thymus duplex DNA aggregation in pH 7.4 sodium cacodylate buffer at peptide to polynucleotide ratio of 0.5 by CD titration method.
Series [28] in a line: Binding affinity to poly(dA-dT)2 DNA (unknown origin) in pH 7.4 sodium cacodylate buffer assessed as change in melting temperature at peptide to polynucleotide ratio of 0.3 by thermal denaturation assay.
The nature of series [29]: Binding affinity to poly(rA).(rU) RNA duplex (unknown origin) in pH 7.4 sodium cacodylate buffer assessed as change in melting temperature at peptide to polynucleotide ratio of 0.3 by thermal denaturation assay.
Series [30] can be described thus: Induction of poly(dA-dT)2 DNA aggregation (unknown origin) in pH 7.4 sodium cacodylate buffer at peptide to polynucleotide ratio of 0.5 by CD titration method.
Series [31] in a line: Binding affinity to poly(dA-dT)2 DNA (unknown origin) in pH 7.4 sodium cacodylate buffer assessed as change in melting temperature at peptide to polynucleotide ratio of 0.5 by thermal denaturation assay.
Series [32] can be described thus: Binding affinity to poly(dA-dT)2 DNA (unknown origin) in pH 7.4 sodium cacodylate buffer assessed as positive induced CD band at peptide to polynucleotide ratio of 0.4 by CD titration method.
For series [33], the species on record is Bos taurus. Description: Induction of calf thymus duplex DNA aggregation in pH 7.4 sodium cacodylate buffer at 0.3 to 0.5 equiv after 5 mins by atomic force microscopic method.
Series [34] is described as follows: Binding affinity to poly(dA-dT)2 DNA (unknown origin) in pH 7.4 sodium cacodylate buffer assessed as negative induced band at peptide to polynucleotide ratio of >0.8 by CD titration method.
The species named for series [35] is Bos taurus. Description: Binding affinity to calf thymus duplex DNA in pH 7.4 sodium cacodylate buffer at peptide to polynucleotide ratio of 0.1 to 0.5 by CD titration method.
The nature of series [36]: Binding affinity to poly(dG-dC)2 DNA (unknown origin) in pH 7.4 sodium cacodylate buffer at peptide to polynucleotide ratio of 0.1 to 0.6 by CD titration method.
Series [37] in a line: Binding affinity to poly(dG-dC)2 DNA (unknown origin) in pH 7.4 sodium cacodylate buffer by fluorimetric titration method.
The nature of series [38]: Binding affinity to poly(rA).(rU) RNA duplex (unknown origin) in pH 7.4 sodium cacodylate buffer by fluorimetric titration method.
Series [39] is described as follows: Binding affinity to poly(dA-dT)2 DNA (unknown origin) in pH 7.4 sodium cacodylate buffer at peptide to polynucleotide ratio of <0.4 by CD titration method.
Series [40] is described as follows: Binding affinity to poly(dA-dT)2 DNA (unknown origin) in pH 7.4 sodium cacodylate buffer by fluorimetric titration method.
Series [41] can be described thus: Binding affinity to poly(rA).(rU) RNA duplex (unknown origin) in pH 7.4 sodium cacodylate buffer at peptide to polynucleotide ratio of 0.1 to 0.95 by CD titration method.
The species entered for series [42] is Bos taurus. Description: Induction of calf thymus duplex DNA aggregation in pH 7.4 sodium cacodylate buffer at 0.3 to 1.5 equiv by dynamic light scattering.
Series [43] in a line: Binding affinity to poly(dA-dT)2 DNA (unknown origin) in pH 7.4 sodium cacodylate buffer at peptide to polynucleotide ratio of 0.1 to 1.1 by CD titration method.
Series [44] in a line: Binding affinity to poly(dA-dT)2 DNA (unknown origin) in pH 7.4 sodium cacodylate buffer by ITC. On the technique in general: In ITC the heat of successive injections is recorded.
For series [45], the species on record is Bos taurus. Description: Binding affinity to calf thymus duplex DNA in pH 7.4 sodium cacodylate buffer by ITC.
A short description of series [46]: Binding affinity to poly(dG-dC)2 DNA (unknown origin) in pH 7.4 sodium cacodylate buffer by ITC.
A short description of series [47]: Binding affinity to poly(rA).(rU) RNA duplex (unknown origin) in pH 7.4 sodium cacodylate buffer by ITC.

Experimental findings from ChEMBL document CHEMBL3992554, “Incorporation of arginine mimetic residue into peptides for recognition of double stranded nucleic acid structure: Binding and aggregation studies” (Bioorg Med Chem, 2017) are described below.

Active and inactive are the calls of the source. No cut-off for these calls is given here. Peptide text beside a SMILES is read from it. * marks the point of attachment. Pyrrole2CO(5-CO-guanidino) = N=C(N)NC(=O)c1ccc(C(=O)*)[nH]1

On to `N=C(N)NC(=O)c1ccc(C(=O)NCCCC[C@H](NC(=O)[C@H](CCCCNC(=O)c2ccc(C(=O)NC(=N)N)[nH]2)NC(=O)c2ccc(C(=O)NC(=N)N)[nH]2)C(N)=O)[nH]1`, for which, in [1], the Activity entry is listed as “Not Active”. For the same molecule, the result (in [2]; in series [3]; in the series listed under Bos taurus [6]; in series [8]) was Active. In addition, in [4], the Stability result is reported as “Stable”. For the same molecule, the log Ks is 5.2 in [5], 4.6 in the series filed under Bos taurus [7], 4.8 in series [9] and 4.2 in series [10]. Further, the solubility result in [11] is “Soluble”.

For `N=C(N)NC(=O)c1ccc(C(=O)NCCCC[C@H](NC(=O)[C@@H](N)CCCCNC(=O)c2ccc(C(=O)NC(=N)N)[nH]2)C(N)=O)[nH]1`, the Activity entry in [1] is given as “Not Active”. Also, the result (in series [12]; in series [13]; in the series listed under Bos taurus [14]; in [15]) was Active. Moreover, the Stability entry in series [4] was “Stable”. In addition, the log Ks in the series listed under Bos taurus [7] was determined as 4.9; in series [9], 4.6; in series [10], 3.7. The solubility result in [11] is “Soluble”.

By ΔTm is commonly meant the change in melting temperature against a reference sample. As for `N=C(N)NC(=O)c1ccc(C(=O)NCCCC[C@H](NC(=O)[C@H](CCCCNC(=O)c2ccc(C(=O)NC(=N)N)[nH]2)NC(=O)[C@H](CCCCNC(=O)c2ccc(C(=O)NC(=N)N)[nH]2)NC(=O)[C@@H](N)CCCCNC(=O)c2ccc(C(=O)NC(=N)N)[nH]2)C(N)=O)[nH]1` (H-K(Pyrrole2CO(5-CO-guanidino))K(Pyrrole2CO(5-CO-guanidino))K(Pyrrole2CO(5-CO-guanidino))K(Pyrrole2CO(5-CO-guanidino))-NH2), the result (in series [16]; in series [17]; in series [18]; in the series listed under Bos taurus [19]; in series [21]; in [23]) was Active. In addition, the result (in series [24]; in series [25]; in the series listed under Bos taurus [27]; in [30]; in series [32]) was Active. The Activity result in [1] is given as “Not Active”. In addition, the ΔTm in the series filed under Bos taurus [20] worked out at 0 °C; in series [22], 2.4 °C; in the series listed under Bos taurus [26], 0 °C; in [28], 0.6 °C; in series [29], 2.1 °C; in series [31], 0.5 °C. Moreover, in series [4], the Stability entry is reported as “Stable”. Besides, the log Ks in series [5] is 7.3; in the series listed under Bos taurus [7], 5.4; in series [9], 5.6; in series [10] it was 7. In addition, the solubility result in [11] was “Soluble”.

On to `N=C(N)NC(=O)c1ccc(C(=O)NCCCC[C@H](NC(=O)[C@H](CCCCN)NC(=O)[C@H](CCCCN)NC(=O)[C@@H](N)CCCCN)C(N)=O)[nH]1` (H-KKKK(Pyrrole2CO(5-CO-guanidino))-NH2), for which the result (in the series listed under Bos taurus [33]; in series [34]; in the series listed under Bos taurus [35]; in [36]; in [37]; in [38]) was Active. Moreover, the outcome (in series [39]; in series [40]; in series [41]; in the series filed under Bos taurus [42]) was Active. The Activity result in series [1] is “Not Active”. In addition, the ΔTm was found to be 2.6 °C in the series listed under Bos taurus [20]; 11.1 °C in series [22]; 0.5 °C in the series filed under Bos taurus [26]; 3.3 °C in series [28]; 7.9 °C in [29]; 4.9 °C in series [31]. For the same molecule, the Stability result in series [4] is on record as “Stable”. Besides, the log Ks in series [5] was 6.4; in the series listed under Bos taurus [7], 6.1; in series [9] it was 5.5; in series [10], 5.3. Besides, the solubility entry in series [11] is reported as “Soluble”.

In the case of `N=C(N)NCCC[C@H](NC(=O)[C@H](CCCNC(=N)N)NC(=O)[C@H](CCCNC(=N)N)NC(=O)[C@@H](N)CCCNC(=N)N)C(N)=O` (H-RRRR-NH2), the outcome in series [43] was Active. For the same molecule, the Activity entry in series [1] is “Not Active”. In addition, the log Ks in series [44] lay in the range of 5.44 to 5.5; in the series listed under Bos taurus [45] it was 5.33 to 5.6; in series [46], 5.42 to 5.5; in [47] it was 5.54 to 5.6. Moreover, the ΔTm is 2.7 °C in the series filed under Bos taurus [20]; 15.3 °C in series [22]; 1.9 °C in the series filed under Bos taurus [26]; 4.1 °C in [28]; 12.7 °C in series [29]; 5 °C in series [31]. Further, the Stability result in [4] is “Stable”. Moreover, the solubility result in series [11] is “Soluble”.
